The values below come from patent US20100137324A1, “RHO-KINASE INHIBITORS” (priority 2001, published 2010).

The term melting point denotes the temperature of the solid-liquid transition.

For `O=C(NC1CCCC1)c1nc(Nc2ccc3[nH]ncc3c2)c2ccccc2n1` [Example 134, N-cyclopentyl-4-(1H-indazol-5-ylamino)-2-quinazolinecarboxamide], the melting point lay within 237 to 239 °C.
Turning to `O=C(Nc1ccccn1)c1nc(Nc2ccc3[nH]ncc3c2)c2ccccc2n1` [Example 135, 4-(1H-indazol-5-ylamino)-N-(2-pyridinyl)-2-quinazolinecarboxamide], the melting point is 297 to 300 °C.
In the case of `O=C(Nc1ccncc1)c1nc(Nc2ccc3[nH]ncc3c2)c2ccccc2n1` [Example 131, 4-(1H-indazol-5-ylamino)-N-(4-pyridinyl)-2-quinazolinecarboxamide] it was 295 to 298 °C; in that of `O=C(NC1CCCCC1)c1nc(Nc2ccc3[nH]ncc3c2)c2ccccc2n1` [Example 133, N-cyclohexyl-4-(1H-indazol-5-ylamino)-2-quinazolinecarboxamide], 215 to 217 °C; in that of `CNC(=O)c1nc(Nc2ccc3[nH]ncc3c2)c2ccccc2n1` [Example 137, 4-(1H-indazol-5-ylamino)-N-methyl-2-quinazolinecarboxamide], 283 to 286 °C.
Turning to `COc1ccc(NC(=O)c2nc(Nc3ccc4[nH]ncc4c3)c3ccccc3n2)cc1` [Example 132, 4-(1H-indazol-5-ylamino)-N-(4-methoxyphenyl)-2-quinazolinecarboxamide], the melting point is 210 to 213 °C.
In the case of `O=C(Nc1cnc2ccccc2c1)c1nc(Nc2ccc3[nH]ncc3c2)c2ccccc2n1` [Example 136, 4-(1H-indazol-5-ylamino)-N-(3-quinolinyl)-2-quinazolinecarboxamide] it was 249 to 252 °C; in that of `Cc1nc(Nc2ccc3[nH]ncc3c2)c2ccccc2n1` [Example 139, N-(1H-indazol-5-yl)-N-(2-methyl-4-quinazolinyl)amine], 282 to 288 °C.
